Source: US11173151B2, “Substituted triazole derivatives and uses thereof” (BAYER AKTIENGESELLSCHAFT, priority 2017, dated 2021)

Tests used:
[1] = biological target: T1, human V1a receptor (Homo sapiens, UniProt P37288); experiment: Cellular in vitro assay for determining vasopressin receptor activity, V1a receptor cell line (CHO, aequorin luminescence); type: cell-based; conditions: for IC50: CHO cell line transfected with human V1a receptor, [Arg]-vasopressin at EC50 concentration, read-out: IC50 hV1a; for ratio IC50 hV2/hV1a: selectivity ratio IC50 hV2 / IC50 hV1a
T1 construct: expressed in transfected cells; host or cells: CHO K1 (ATCC), also stably transfected with a modified aequorin
T1 sequence (P37288 whole entry): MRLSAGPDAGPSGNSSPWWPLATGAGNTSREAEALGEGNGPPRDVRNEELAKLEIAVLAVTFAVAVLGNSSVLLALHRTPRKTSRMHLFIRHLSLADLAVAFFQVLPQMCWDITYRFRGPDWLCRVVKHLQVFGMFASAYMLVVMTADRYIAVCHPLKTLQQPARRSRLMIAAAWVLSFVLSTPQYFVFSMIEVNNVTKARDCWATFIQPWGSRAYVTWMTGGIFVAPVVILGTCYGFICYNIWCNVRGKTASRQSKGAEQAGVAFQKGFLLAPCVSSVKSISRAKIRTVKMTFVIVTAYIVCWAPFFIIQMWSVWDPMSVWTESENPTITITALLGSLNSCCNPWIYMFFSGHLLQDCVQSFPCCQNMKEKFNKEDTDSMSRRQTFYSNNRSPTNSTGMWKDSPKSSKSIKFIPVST
In short: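 CHO K1/aequorin cells, coelenterazine 5 μg/ml o/n; cpd 10 min; [Arg]-vasopressin at EC50; luminescence read immediately; IC50.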

[2] = biological target: T2, human V2 receptor (Homo sapiens, UniProt P30518); experiment: Cellular in vitro assay for determining vasopressin receptor activity, V2 receptor cell line (CHO, CRE-luciferase); type: cell-based; conditions: CHO cell line transfected with human V2 receptor; [Arg8]-vasopressin at EC50 concentration; read-out: IC50 hV2
T2 construct: expressed in transfected cells; host or cells: CHO K1 (ATCC) expressing firefly luciferase under a CRE-responsive promoter
T2 sequence (P30518 whole entry): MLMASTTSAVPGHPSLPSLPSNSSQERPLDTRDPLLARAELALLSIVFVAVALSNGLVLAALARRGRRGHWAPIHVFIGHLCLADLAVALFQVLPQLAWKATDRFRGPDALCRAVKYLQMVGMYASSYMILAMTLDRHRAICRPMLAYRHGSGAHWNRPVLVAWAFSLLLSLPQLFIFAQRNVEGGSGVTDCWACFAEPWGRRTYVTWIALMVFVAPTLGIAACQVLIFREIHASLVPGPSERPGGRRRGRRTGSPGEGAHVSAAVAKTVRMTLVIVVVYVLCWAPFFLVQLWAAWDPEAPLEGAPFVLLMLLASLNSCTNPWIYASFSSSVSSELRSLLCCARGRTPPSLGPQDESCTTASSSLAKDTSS

| Compound | IC50 [1] | ratio IC50 hV2/hV1a [1] | IC50 [2] |
| --- | --- | --- | --- |
| O=C(c1cccc(Cl)c1-n1cnc(Cn2nc(-c3ccc(Cl)cc3)n(C[C@@H](O)C(F)(F)F)c2=O)n1)N1CCCCC1 [Example 401, 5-(4-Chlorophenyl)-2-({1-[2-chloro-6-(piperidin-1-ylcarbonyl)phenyl]-1H-1,2,4-triazol-3-yl}methyl)-4-[(2R)-3,3,3-trifluoro-2-hydroxypropyl]-2,4-dihydro-3H-1,2,4-triazol-3-one] | 0.24 µM | 41.5 | 9.95 µM |
| O=C(c1cccc(Cl)c1-n1cnc(Cn2nc(-c3ccc(Cl)cc3)n(C[C@@H](O)C(F)(F)F)c2=O)n1)N1CCC[C@@H]1C(F)(F)F [Example 404, 5-(4-Chlorophenyl)-2-{[1-(2-chloro-6-{[(2R)-2-(trifluoromethyl)pyrrolidin-1-yl]carbonyl}phenyl)-1H-1,2,4-triazol-3-yl]methyl}-4-[(2R)-3,3,3-trifluoro-2-hydroxypropyl]-2,4-dihydro-3H-1,2,4-triazol-3-one] | 0.315 µM | 36.5 | 11.5 µM |
| CC1(NC(=O)c2cccc(Cl)c2-n2cnc(Cn3nc(-c4ccc(Cl)cc4)n(C[C@@H](O)C(F)(F)F)c3=O)n2)CC1 [Example 405, 3-Chloro-2-[3-({3-(4-chlorophenyl)-5-oxo-4-[(2R)-3,3,3-trifluoro-2-hydroxypropyl]-4,5-dihydro-1H-1,2,4-triazol-1-yl}methyl)-1H-1,2,4-triazol-1-yl]-N-(1-methylcyclopropyl)benzamide] | 0.0165 µM | 615.2 | 10.1 µM |
| CC1(C)COCCN1C(=O)c1cccc(Cl)c1-n1cnc(Cn2nc(-c3ccc(Cl)cc3)n(C[C@@H](O)C(F)(F)F)c2=O)n1 [Example 407, 2-[(1-{2-Chloro-6-[(3,3-dimethylmorpholin-4-yl)carbonyl]phenyl}-1H-1,2,4-triazol-3-yl)methyl]-5-(4-chlorophenyl)-4-[(2R)-3,3,3-trifluoro-2-hydroxypropyl]-2,4-dihydro-3H-1,2,4-triazol-3-one] | 0.425 µM | 75.3 | 32 µM |
| O=C(c1cccc(Cl)c1-n1cnc(Cn2nc(-c3ccc(Cl)cc3)n(C[C@H](O)C(F)(F)F)c2=O)n1)N1CC2(COC2)C1 [Example 411, 2-({1-[2-Chloro-6-(2-oxa-6-azaspiro[3.3]hept-6-ylcarbonyl)phenyl]-1H-1,2,4-triazol-3-yl}methyl)-5-(4-chlorophenyl)-4-[(2S)-3,3,3-trifluoro-2-hydroxypropyl]-2,4-dihydro-3H-1,2,4-triazol-3-one] | 0.365 µM | 13.3 | 4.85 µM |
| O=C(NCC(F)(F)F)c1cccc(C(F)(F)F)c1-n1cnc(Cn2nc(-c3ccc(Cl)cc3)n(C[C@H](O)C(F)(F)F)c2=O)n1 [Example 412, 2-[3-({3-(4-Chlorophenyl)-5-oxo-4-[(2S)-3,3,3-trifluoro-2-hydroxypropyl]-4,5-dihydro-1H-1,2,4-triazol-1-yl}methyl)-1H-1,2,4-triazol-1-yl]-N-(2,2,2-trifluoroethyl)-3-(trifluoromethyl)benzamide] | 0.14 µM | 14.3 | 2 µM |
| COC[C@H]1CCCN1C(=O)c1cccc(C(F)(F)F)c1-n1cnc(Cn2nc(-c3ccc(Cl)cc3)n(C[C@H](O)C(F)(F)F)c2=O)n1 [Example 416, 5-(4-Chlorophenyl)-2-({1-[2-{[(2R)-2-(methoxymethyl)pyrrolidin-1-yl]carbonyl}-6-(trifluoromethyl)phenyl]-1H-1,2,4-triazol-3-yl}methyl)-4-[(2S)-3,3,3-trifluoro-2-hydroxypropyl]-2,4-dihydro-3H-1,2,4-triazol-3-one] | 0.0515 µM | 113.6 | 5.85 µM |
| O=C(NCC1CC1)c1cccc(C(F)(F)F)c1-n1cnc(Cn2nc(-c3ccc(Cl)cc3)n(C[C@H](O)C(F)(F)F)c2=O)n1 [Example 419, 2-[3-({3-(4-Chlorophenyl)-5-oxo-4-[(2S)-3,3,3-trifluoro-2-hydroxypropyl]-4,5-dihydro-1H-1,2,4-triazol-1-yl}methyl)-1H-1,2,4-triazol-1-yl]-N-(cyclopropylmethyl)-3-(trifluoromethyl)benzamide] | 0.096 µM | 10.7 | 1.02 µM |
| O=C(NCCC(F)(F)F)c1cccc(C(F)(F)F)c1-n1cnc(Cn2nc(-c3ccc(Cl)cc3)n(C[C@H](O)C(F)(F)F)c2=O)n1 [Example 421, 2-[3-({3-(4-Chlorophenyl)-5-oxo-4-[(2S)-3,3,3-trifluoro-2-hydroxypropyl]-4,5-dihydro-1H-1,2,4-triazol-1-yl}methyl)-1H-1,2,4-triazol-1-yl]-3-(trifluoromethyl)-N-(3,3,3-trifluoropropyl)benzamide] | 0.022 µM | 16.8 | 0.37 µM |

Other lines, results leading:

| IC50 [1] | ratio IC50 hV2/hV1a [1] | IC50 [2] | Compound |
| --- | --- | --- | --- |
| 0.19 µM | 16.6 | 3.15 µM | O=C(NC1CC(F)(F)C1)c1cccc(Cl)c1-n1cnc(Cn2nc(-c3ccc(Cl)cc3)n(C[C@@H](O)C(F)(F)F)c2=O)n1 [Example 399, 3-Chloro-2-[3-({3-(4-chlorophenyl)-5-oxo-4-[(2R)-3,3,3-trifluoro-2-hydroxypropyl]-4,5-dihydro-1H-1,2,4-triazol-1-yl}methyl)-1H-1,2,4-triazol-1-yl]-N-(3,3-difluorocyclobutyl)benzamide] |
| 0.435 µM | 73.6 | 32 µM | O=C(c1cccc(Cl)c1-n1cnc(Cn2nc(-c3ccc(Cl)cc3)n(C[C@@H](O)C(F)(F)F)c2=O)n1)N1CCOCC1 [Example 402, 2-({1-[2-Chloro-6-(morpholin-4-ylcarbonyl)phenyl]-1H-1,2,4-triazol-3-yl}methyl)-5-(4-chlorophenyl)-4-[(2R)-3,3,3-trifluoro-2-hydroxypropyl]-2,4-dihydro-3H-1,2,4-triazol-3-one] |
| 0.0745 µM | 77.9 | 5.8 µM | O=C(NC1(C(F)(F)F)CC1)c1cccc(Cl)c1-n1cnc(Cn2nc(-c3ccc(Cl)cc3)n(C[C@@H](O)C(F)(F)F)c2=O)n1 [Example 403, 3-Chloro-2-[3-({3-(4-chlorophenyl)-5-oxo-4-[(2R)-3,3,3-trifluoro-2-hydroxypropyl]-4,5-dihydro-1H-1,2,4-triazol-1-yl}methyl)-1H-1,2,4-triazol-1-yl]-N-[1-(trifluoromethyl)cyclopropyl]benzamide] |
| 0.18 µM | 177.8 | 32 µM | NC(=O)[C@H]1CC(F)(F)CN1C(=O)c1cccc(Cl)c1-n1cnc(Cn2nc(-c3ccc(Cl)cc3)n(C[C@@H](O)C(F)(F)F)c2=O)n1 [Example 409, 1-{3-Chloro-2-[3-({3-(4-chlorophenyl)-5-oxo-4-[(2R)-3,3,3-trifluoro-2-hydroxypropyl]-4,5-dihydro-1H-1,2,4-triazol-1-yl}methyl)-1H-1,2,4-triazol-1-yl]benzoyl}-4,4-difluoro-D-prolinamide] |
| 0.325 µM | 10.2 | 3.3 µM | O=C(NCCC(F)(F)F)c1cccc(Cl)c1-n1cnc(Cn2nc(-c3ccc(Cl)cc3)n(C[C@@H](O)C(F)(F)F)c2=O)n1 [Example 410, 3-Chloro-2-[3-({3-(4-chlorophenyl)-5-oxo-4-[(2R)-3,3,3-trifluoro-2-hydroxypropyl]-4,5-dihydro-1H-1,2,4-triazol-1-yl}methyl)-1H-1,2,4-triazol-1-yl]-N-(3,3,3-trifluoropropyl)benzamide] |
| 0.0445 µM | 80.9 | 3.6 µM | CC1(NC(=O)c2cccc(C(F)(F)F)c2-n2cnc(Cn3nc(-c4ccc(Cl)cc4)n(C[C@H](O)C(F)(F)F)c3=O)n2)CC1 [Example 414, 2-[3-({3-(4-Chlorophenyl)-5-oxo-4-[(2S)-3,3,3-trifluoro-2-hydroxypropyl]-4,5-dihydro-1H-1,2,4-triazol-1-yl}methyl)-1H-1,2,4-triazol-1-yl]-N-(1-methylcyclopropyl)-3-(trifluoromethyl)benzamide] |
| 0.0535 µM | 28.0 | 1.5 µM | O=C(NC1CC1)c1cccc(C(F)(F)F)c1-n1cnc(Cn2nc(-c3ccc(Cl)cc3)n(C[C@H](O)C(F)(F)F)c2=O)n1 [Example 415, 2-[3-({3-(4-Chlorophenyl)-5-oxo-4-[(2S)-3,3,3-trifluoro-2-hydroxypropyl]-4,5-dihydro-1H-1,2,4-triazol-1-yl}methyl)-1H-1,2,4-triazol-1-yl]-N-cyclopropyl-3-(trifluoromethyl)benzamide] |
| 0.0375 µM | 8.4 | 0.315 µM | O=C(NC1CC(F)(F)C1)c1cccc(C(F)(F)F)c1-n1cnc(Cn2nc(-c3ccc(Cl)cc3)n(C[C@H](O)C(F)(F)F)c2=O)n1 [Example 417, 2-[3-({3-(4-Chlorophenyl)-5-oxo-4-[(2S)-3,3,3-trifluoro-2-hydroxypropyl]-4,5-dihydro-1H-1,2,4-triazol-1-yl}methyl)-1H-1,2,4-triazol-1-yl]-N-(3,3-difluorocyclobutyl)-3-(trifluoromethyl)benzamide] |
| 0.635 µM | 50.4 | 32 µM | O=C(c1cccc(C(F)(F)F)c1-n1cnc(Cn2nc(-c3ccc(Cl)cc3)n(C[C@H](O)C(F)(F)F)c2=O)n1)N1CCS(=O)(=O)CC1 [Example 418, 5-(4-Chlorophenyl)-2-[(1-{2-[(1,1-dioxidothiomorpholin-4-yl)carbonyl]-6-(trifluoromethyl)phenyl}-1H-1,2,4-triazol-3-yl)methyl]-4-[(2S)-3,3,3-trifluoro-2-hydroxypropyl]-2,4-dihydro-3H-1,2,4-triazol-3-one] |
